Laboratory results reported in article PMC11574045, “A cofactor-induced repressive type of transcription factor condensation can be induced by synthetic peptides to suppress tumorigenesis” (The EMBO Journal, 2024).
Values joined by “and” are separate entries in the source; they are usually repeats but may differ in a detail not shown here. Equal entries are not always repeated. Ends that are not written are not given here.

Assays:
[1] = test system: HGC-27 xenograft tumors; test: HGC-27 xenograft tumor formation assay; assay type: in vivo, mouse; set-up: Tumor volume, GLUP+ / Tumor volume, GLUP++: unit not given here
Description: Mice used in this study were from SLAC Laboratory Animal (Shanghai, China), and included 4-week-old BALB/c nude mice (female) and 8-week-old C57BL/6J mice (male and female). Tumors were allowed to grow to an average size of ~60 mm^3 and then the mice were randomly allocated to groups of 5–6 animals. No blinding was used in the treatment schedules for these experiments since the different treatments were identified by different marks on the tail. Based on our previous experience, 5–6 animals per group would provide statistically significant data while keeping the number of animals used to a minimum. Tumor size was determined by taking caliper measurements of tumor length, width and depth; tumor volume was calculated as 0.5236 × length × width × depth (mm^3).
Healthy female BALB/c nude mice were maintained in pathogen-free conditions to which they were allowed to acclimate for 1 week before being used. For the tumor formation assay, tumor cells (1 × 10^6) were injected into the respective flanks of the mice. Mice in which tumors were detected with an average size of ~60 mm^3 were biweekly administered 1 or 5 mg/kg GLUP via subcutaneous injection. These mice were sacrificed after 4 weeks, and tumor volumes were then measured.

[2] = test system: chromatin; test: N-SIM imaging of DAPI-labeled chromatin in cells; assay type: cell-based; details: GLUP 1 μg/ml (0.5 μM)
Description: Next, we used structure illumination microscopy (N-SIM) to examine deformation of DAPI-labeled chromatin in cells overexpressing VGLL4. […] To further address this issue, we performed colloidal gold staining using TEAD4 antibody to observe the status of chromatin around TEAD4.
To confirm cellular entry of GLUP, we performed immunostaining of live cells treated with a fluorescein-labeled version of the peptide (FAM-GLUP). […] We then examined the potential effect of GLUP on TEAD4-mediated perturbation of DNA conformation.

Substance: RRVCVHFHFSLSLR-NH2 (C-terminus assumed) [glup]
- Growth of xenografted tumors ([1]; 1 or 5 mg/kg GLUP): inhibited growth of xenografted tumors in a dose-dependent manner
- Tumor volume, GLUP+ ([1]; nude mice, 1 mg/kg GLUP s.c. biweekly, individual mice, n = 5 (source data Fig 7E), 1 mg/kg): 0.858 and 0.629 and 0.519 and 0.753 and 0.732
- Tumor volume, GLUP++ ([1]; nude mice, 5 mg/kg GLUP s.c. biweekly, individual mice, n = 5 (source data Fig 7E), 5 mg/kg): 0.345 and 0.321 and 0.256 and 0.423 and 0.503
- Effect on chromatin distribution [2]: substantially disturbed chromatin distribution and organization
